For 36 compounds, melting point results are on record in US9682092B2, “Boron-containing small molecules as anti-inflammatory agents” (ANACOR PHARMACEUTICALS, INC., priority 2006, dated 2017).

Bounds are passed on as bounds.

As to `O=C(COc1ccc2c(c1)COB2O)N1CCCCC1` [C46, 2-(1-hydroxy-1,3-dihydrobenzo[c][1,2]oxaborol-5-yloxy)-1-(piperidin-1-yl)ethanone], the melting point (usually the temperature of the solid-liquid transition) fell in the range of 158 to 163 °C. Next, `O=S(=O)(c1ccccc1)N(c1ccc2c(c1)COB2O)S(=O)(=O)c1ccccc1` [C91, N-(1-hydroxy-1,3-dihydrobenzo[c][1,2]oxaborol-5-yl)-N-(phenylsulfonyl)benzenesulfonamide]: 142 to 152 °C; `O=S(=O)(Nc1ccc2c(c1)B(O)OC2)c1ccccc1` [C62, N-(1-hydroxy-1,3-dihydrobenzo[c][1,2]oxaborol-6-yl)benzenesulfonamide]: 175 to 184 °C; `OB1OCc2ccc(Oc3ccc(Cl)cc3)cc21` [C20, 6-(4-Chlorophenoxy)-1,3-dihydro-1-hydroxy-2,1-benzoxaborole]: 119 to 130 °C. Take `Cc1ccc(Sc2ccc3c(c2)B(O)OC3)cc1` [C95, 6-(p-tolylthio)benzo[c][1,2]oxaborol-1(3H)-ol]: the melting point lay in the range of 139 to 144 °C.

The compound `COc1ccc2c(c1)c(SCCC#N)cn2-c1ccc2c(c1)B(O)OC2` [C73, 3-(1-(1-hydroxy-1,3-dihydrobenzo[c][1,2]oxaborol-6-yl)-5-methoxy-1H-indol-3-ylthio)propanenitrile] yielded a melting point of 149 to 154 °C. The result for `OB1OCc2ccc(Sc3ccc(C(F)(F)F)cc3)cc21` [C92, 6-(4-(trifluoromethyl)phenylthio)benzo[c][1,2]oxaborol-1(3H)-ol] reads 111 to 113 °C. Next, `OB1OCc2ccc(NCc3ccccc3)cc21` [C77, 6-(benzylamino)benzo[c][1,2]oxaborol-1(3H)-ol]: 126 to 133 °C; `Nc1cc2c(cc1F)COB2O` [C70, 6-amino-5-fluorobenzo[c][1,2]oxaborol-1(3H)-ol]: 142 to 145 °C; `OB1OCc2cc3c(cc21)COB3O` [C60, 3,7-dihydro-1,5-dihydroxy-1H,3H-Benzo[1,2-c:4,5-c′]bis[1,2]oxaborole]: more than 250 °C. Regarding `CCCCC(=O)c1cccc(COc2ccc3c(c2)COB3O)c1` [C45, 1-(3-((1-hydroxy-1,3-dihydrobenzo[c][1,2]oxaborol-5-yloxy)methyl)phenyl)pentan-1-one], the melting point lay within 96 to 98 °C. The result for `O=C(Nc1ccc2c(c1)B(O)OC2)c1ccccc1` [C52, N-(1-hydroxy-1,3-dihydrobenzo[c][1,2]oxaborol-6-yl)benzamide] reads 186 to 193 °C.

Compound `COc1ccc2c(c1)c(Sc1ccccc1)cn2-c1ccc2c(c1)B(O)OC2` [C72, 6-(5-methoxy-3-(phenylthio)-1H-indol-1-yl)benzo[c][1,2]oxaborol-1(3H)-ol] registered a melting point of 135 to 141 °C.

For the compound `O=S(=O)(c1ccc(Cl)cc1)c1ccc2c(c1)B(O)OC2` [C90, 6-(4-chlorophenylsulfonyl)benzo[c][1,2]oxaborol-1(3H)-ol], the melting point was 157 to 163 °C. Next, `O=[N+]([O-])c1cc2c(cc1F)COB2O` [C58, 5-fluoro-6-nitrobenzo[c][1,2]oxaborol-1(3H)-ol]: 162 to 167 °C; `N#Cc1cccc(COc2ccc3c(c2)COB3O)c1` [C96, 3-((1-hydroxy-1,3-dihydrobenzo[c][1,2]oxaborol-5-yloxy)methyl)benzonitrile]: 147 to 150 °C. Consider `OB1OCc2ccc(F)cc21` [C13, 1,3-Dihydro-6-fluoro-1-hydroxy-2,1-benzoxaborole], for which the melting point lay within 110 to 117.5 °C.

Compound `[O-][S+](c1ccc(C(F)(F)F)cc1)c1ccc2c(c1)B(O)OC2` (stereo not drawn) [C93, 6-(4-(trifluoromethyl)phenylsulfinyl)benzo[c][1,2]oxaborol-1(3H)-ol] displayed a melting point of 79 to 88 °C.

Take `CC(=O)Nc1ccc2c(c1)B(O)OC2` [C63, N-(1-hydroxy-1,3-dihydrobenzo[c][1,2]oxaborol-6-yl)acetamide]: the melting point was in the range of 176 to 185 °C.

For the compound `CN(c1ccc2c(c1)COB2O)S(=O)(=O)c1ccccc1` [C30, 5-(N-Methyl-N-phenylsulfonylamino)-1,3-dihydro-1-hydroxy-2,1-benzoxaborole], the melting point was 85 to 95 °C. Next, `O=C(COc1ccc2c(c1)COB2O)N1CCN(c2ncccn2)CC1` [C47, 2-(1-hydroxy-1,3-dihydrobenzo[c][1,2]oxaborol-5-yloxy)-1-(4-(pyrimidin-2-yl)piperazin-1-yl)ethanone]: 190 to 195 °C; `COc1ccc(S(=O)(=O)c2ccc3c(c2)B(O)OC3)cc1` [C33, 6-(4-Methoxyphenylsulfonyl)-1,3-dihydro-1-hydroxy-2,1-benzoxaborole]: 180 to 192 °C.

With `[O-][S+](c1ccc(Cl)cc1)c1ccc2c(c1)B(O)OC2` (stereo not drawn) [C89, 6-(4-chlorophenylsulfinyl)benzo[c][1,2]oxaborol-1(3H)-ol], the melting point was 154 to 161 °C. In turn, `N#Cc1cccc(Oc2ccc3c(c2)B(O)OC3)c1` [C19, 6-(3-Cyanophenoxy)-1,3-dihydro-1-hydroxy-2,1-benzoxaborole] showed a melting point of 146 to 149 °C. Next, `OB1OCc2ccc(Oc3ccccc3)cc21` [C21, 6-Phenoxy-1,3-dihydro-1-hydroxy-2,1-benzoxaborole]: 95 to 99 °C. Next, `N#CCCSc1cn(-c2ccc3c(c2)B(O)OC3)c2ccccc12` [C67, 3-(1-(1-hydroxy-1,3-dihydrobenzo[c][1,2]oxaborol-6-yl)-1H-indol-3-ylthio)propanenitrile]: 135 to 141 °C; `CCOC(=O)COc1ccc2c(c1)COB2O` [C41, Ethyl 2-(1-hydroxy-1,3-dihydrobenzo[c][1,2]oxaborol-5-yloxy)acetate]: 134 to 137 °C; `OB1OCc2ccc(N3CCN(c4ccccc4)CC3)cc21` [C53, 6-(4-phenylpiperazin-1-yl)benzo[c][1,2]oxaborol-1(3H)-ol]: 159 to 161 °C.

In the case of `Cc1cc(Oc2ccc(C#N)cc2)ccc1B(O)O` [C99, 4-(4-Cyanophenoxy)-2-Methylphenylboronic acid], the melting point lay within 161 to 165 °C. Next, `N#Cc1ccc(Oc2ccc(B(O)O)cc2)cc1`: 194 to 198 °C; `OCc1cccc2c1B(O)OC2` [C64, 7-(hydroxymethyl)benzo[c][1,2]oxaborol-1(3H)-ol]: 241 to 250 °C; `OB1OCc2cc(F)c(NCc3ccccc3)cc21` [C71, 6-(benzylamino)-5-fluorobenzo[c][1,2]oxaborol-1(3H)-ol]: 159 to 164 °C. With `CSc1ccc(Sc2ccc3c(c2)B(O)OC3)cc1` [C94, 6-(4-(methylthio)phenylthio)benzo[c][1,2]oxaborol-1(3H)-ol], the melting point was in the range of 117 to 120 °C. Next, `OB1OCc2ccc(N(Cc3ccccc3)Cc3ccccc3)cc21` [C78, 6-(dibenzylamino)benzo[c][1,2]oxaborol-1(3H)-ol]: 115 to 123 °C. Consider `OB1OCc2ccc(-n3ccc4cc(Cl)ccc43)cc21` [C75, 6-(5-chloro-1H-indol-1-yl)benzo[c][1,2]oxaborol-1(3H)-ol], for which the melting point is 149 to 154 °C. As to `Cc1cccc2c1B(O)OC2` [C65, 7-methylbenzo[c][1,2]oxaborol-1(3H)-ol], the melting point was in the range of 107 to 111 °C.
